# Like-named read-outs stand apart in the source and are kept apart here.
# What was measured:
# [1] = target: T1, His tagged PTPN2 (TC45) protein (Homo sapiens, UniProt P17706); experiment: Mobility shift assay (MSA) for potency of PTPN2 inhibitors; assay type: biochemical
# T1 construct: made in house
# T1 sequence (P17706 with tags, fused parts or gaps isoform P17706-2): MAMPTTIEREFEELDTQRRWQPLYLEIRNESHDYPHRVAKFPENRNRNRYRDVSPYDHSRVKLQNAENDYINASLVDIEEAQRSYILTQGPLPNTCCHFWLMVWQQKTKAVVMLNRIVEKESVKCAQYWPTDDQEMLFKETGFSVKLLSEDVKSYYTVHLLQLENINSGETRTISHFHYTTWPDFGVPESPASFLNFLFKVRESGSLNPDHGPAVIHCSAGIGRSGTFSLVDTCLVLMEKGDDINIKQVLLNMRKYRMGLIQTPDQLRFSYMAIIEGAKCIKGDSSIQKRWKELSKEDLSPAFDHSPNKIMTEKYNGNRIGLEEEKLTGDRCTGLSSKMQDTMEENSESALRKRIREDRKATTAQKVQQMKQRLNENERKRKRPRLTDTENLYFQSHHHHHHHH
# Method in brief: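 IC50 values were derived from % inhibition of substrate conversion, measured by microfluidic mobility shift (ex 488/em 530) after quenching. The fluorescent phosphotyrosine insulin-receptor peptide ([…]) reacted for 10 min at room temperature with 0.5 nM His-tagged TC45 PTPN2 that had been preincubated 10 min with compound (12 points, 1:3). Buffer was HEPES pH 7.5 with EGTA, EDTA, Tween 20 and DTT.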
# [2] = system: B16F10 mouse melanoma cells; experiment: B16F10 IFNγ-induced cellular growth inhibition assay; assay type: cell-based; settings: Mus musculus, B16-F10
# Method in brief: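 Live-cell imaging of confluence every 6 h over 5 days at 37 °C tracked growth of mouse B16F10 melanoma cells seeded overnight at 500/well. Semi-log compound series (final 100–0.001 μM, 0.1% DMSO) ran in both arms, ±IFNγ at 0.5 ng/mL final; inhibition taken relative to DMSO plus IFNγ when IFNγ-free DMSO wells passed 95% confluence.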
# [3] = +0.5 ng/mL IFNγ, 33 μM compound, relative to DMSO control, read-out: % B16F10 growth inhibition (+0.5 ng/mL IFNγ) @ 33 μM
# [4] = no IFNγ, 33 μM compound, read-out: % B16F10 growth inhibition (no IFNγ) @ 33 μM
Compound,IC50 ([1]; read-out: PTPN2 MSA IC50) [nM],"inhibition at 33 µM [2, 3] [%]","inhibition at 33 µM [2, 4] [%]","IC50 ([1]; Table 4, read-out: PTPN2 MSA IC50) [nM]",IC50 ([1]; read-out: PTPN2 IC50) [nM],"inhibition at 33 µM ([2]; 33 μM, in the presence of IFNγ, read-out: growth inhibition in the presence of IFNγ compared to DMSO controls) [%]","inhibition at 33 µM ([2]; Table 4, +0.5 ng/mL IFNγ, 33 μM, read-out: % B16F10 growth inhibition (+0.5 ng/mL IFNγ) @ 33 μM) [%]","inhibition at 33 µM ([2]; Table 4, no IFNγ, 33 μM, read-out: % B16F10 growth inhibition (no IFNγ) @ 33 μM) [%]"
"O=C1CN(c2c(O)cc3ccc(O)cc3c2F)S(=O)(=O)N1 [Compound 276, 5-(1-fluoro-3,7-dihydroxynaphthalen-2-yl)-1λ^6,2,5-thiadiazolidine-1,1,3-trione]",1 to 10,25 to 59,< 25,,,,,
"O=C1CN(c2c(O)cc3ccc(OCCO)cc3c2F)S(=O)(=O)N1 [Compound 277, 5-[1-fluoro-3-hydroxy-7-(2-hydroxyethoxy)naphthalen-2-yl]-1λ^6,2,5-thiadiazolidine-1,1,3-trione]",1 to 10,60 to 90,< 25,,,,,
"CCCOc1ccc2cc(O)c(N3CC(=O)NS3(=O)=O)c(F)c2c1 [Compound 278, 5-(1-fluoro-3-hydroxy-7-propoxynaphthalen-2-yl)-1λ^6,2,5-thiadiazolidine-1,1,3-trione]",1 to 10,60 to 90,< 25,,,,,
"CC(C)Oc1ccc2cc(O)c(N3CC(=O)NS3(=O)=O)c(F)c2c1 [Compound 279, 5-{1-fluoro-3-hydroxy-7-[(propan-2-yl)oxy]naphthalen-2-yl}-1λ^6,2,5-thiadiazolidine-1,1,3-trione]",1 to 10,60 to 90,< 25,,,,,
"O=C(COc1ccc2cc(O)c(N3CC(=O)NS3(=O)=O)c(F)c2c1)NCCC1CC1 [Compound 281, N-(2-cyclopropylethyl)-2-{[8-fluoro-6-hydroxy-7-(1,1,4-trioxo-1λ^6,2,5-thiadiazolidin-2-yl)naphthalen-2-yl]oxy}acetamide]",1 to 10,25 to 59,< 25,,,,,
"CCN(CC)C(=O)COc1ccc2cc(O)c(N3CC(=O)NS3(=O)=O)c(F)c2c1 [Compound 282, N,N-diethyl-2-{[8-fluoro-6-hydroxy-7-(1,1,4-trioxo-1λ^6,2,5-thiadiazolidin-2-yl)naphthalen-2-yl]oxy}acetamide]",1 to 10,25 to 59,< 25,,,,,
"O=C1CN(c2c(O)cc3ccc(OCC(=O)N4CCCC4)cc3c2F)S(=O)(=O)N1 [Compound 283, 5-{1-fluoro-3-hydroxy-7-[2-oxo-2-(pyrrolidin-1-yl)ethoxy]naphthalen-2-yl}-1λ^6,2,5-thiadiazolidine-1,1,3-trione]",1 to 10,25 to 59,< 25,,,,,
"CCS(=O)(=O)N1CC=C(c2ccc3cc(O)c(N4CC(=O)NS4(=O)=O)c(F)c3c2)C1 [Compound 295, 5-{7-[1-(ethanesulfonyl)-2,5-dihydro-1H-pyrrol-3-yl]-1-fluoro-3-hydroxynaphthalen-2-yl}-1λ^6,2,5-thiadiazolidine-1,1,3-trione]",< 1,> 90,< 25,,,,,
"CC(C)S(=O)(=O)N1CC=C(c2ccc3cc(O)c(N4CC(=O)NS4(=O)=O)c(F)c3c2)C1 [Compound 296, 5-{1-fluoro-3-hydroxy-7-[1-(propane-2-sulfonyl)-2,5-dihydro-1H-pyrrol-3-yl]naphthalen-2-yl}-1λ^6,2,5-thiadiazolidine-1,1,3-trione]",< 1,> 90,< 25,,,,,
"O=C1CN(c2c(O)cc3ccc(C4=CCN(S(=O)(=O)C5CC5)CC4)cc3c2F)S(=O)(=O)N1 [Compound 297, 5-{7-[1-(cyclopropanesulfonyl)-1,2,3,6-tetrahydropyridin-4-yl]-1-fluoro-3-hydroxynaphthalen-2-yl}-1λ^6,2,5-thiadiazolidine-1,1,3-trione]",1 to 10,25 to 59,< 25,,,,,
"O=C1CN(c2c(O)cc3ccc(C4CCNCC4)cc3c2F)S(=O)(=O)N1 [Compound 299, 5-[1-fluoro-3-hydroxy-7-(piperidin-4-yl)naphthalen-2-yl]-1λ^6,2,5-thiadiazolidine-1,1,3-trione]",1 to 10,> 90,< 25,,,,,
"CC(C)CS(=O)(=O)N1CC=C(c2ccc3cc(O)c(N4CC(=O)NS4(=O)=O)c(F)c3c2)C1 [Compound 300, 5-{1-fluoro-3-hydroxy-7-[1-(2-methylpropane-1-sulfonyl)-2,5-dihydro-1H-pyrrol-3-yl]naphthalen-2-yl}-1λ^6,2,5-thiadiazolidine-1,1,3-trione]",< 1,60 to 90,< 25,,,,,
"CCOc1ccc2cc(O)c(N3CC(=O)NS3(=O)=O)c(F)c2c1 [Compound 301, 5-(7-ethoxy-1-fluoro-3-hydroxynaphthalen-2-yl)-1λ^6,2,5-thiadiazolidine-1,1,3-trione]",1 to 10,60 to 90,< 25,,,,,
"O=C1CN(c2c(O)cc3ccc(OCC(F)F)cc3c2F)S(=O)(=O)N1 [Compound 302, 5-[7-(2,2-difluoroethoxy)-1-fluoro-3-hydroxynaphthalen-2-yl]-1λ^6,2,5-thiadiazolidine-1,1,3-trione]",1 to 10,60 to 90,< 25,,,,,
"O=C1CN(c2c(O)cc3ccc(-c4cnn(S(=O)(=O)C5CC5)c4)cc3c2F)S(=O)(=O)N1 [Compound 303, 5-{7-[1-(cyclopropanesulfonyl)-1H-pyrazol-4-yl]-1-fluoro-3-hydroxynaphthalen-2-yl}-1λ^6,2,5-thiadiazolidine-1,1,3-trione]",< 1,60 to 90,< 25,,,,,
"CS(=O)(=O)N1CC[C@@H](Nc2ccc3cc(O)c(N4CC(=O)NS4(=O)=O)c(F)c3c2)C1 [Compound 304, 5-(1-fluoro-3-hydroxy-7-{[(3R)-1-(methanesulfonyl)pyrrolidin-3-yl]amino}naphthalen-2-yl)-1λ^6,2,5-thiadiazolidine-1,1,3-trione]",1 to 10,> 90,< 25,,,,,
"CS(=O)(=O)N1CCC(Nc2ccc3cc(O)c(N4CC(=O)NS4(=O)=O)c(F)c3c2)CC1 [Compound 305, 5-(1-fluoro-3-hydroxy-7-{[1-(methanesulfonyl)piperidin-4-yl]amino}naphthalen-2-yl)-1λ^6,2,5-thiadiazolidine-1,1,3-trione]",10 to 100,60 to 90,< 25,,,,,
"NCCOc1ccc2cc(O)c(N3CC(=O)NS3(=O)=O)c(F)c2c1 [Compound 309, 5-[7-(2-aminoethoxy)-1-fluoro-3-hydroxynaphthalen-2-yl]-1λ^6,2,5-thiadiazolidine-1,1,3-trione]",1 to 10,60 to 90,< 25,,,,,
"Cc1nn(C)cc1S(=O)(=O)N1CC=C(c2ccc3cc(O)c(N4CC(=O)NS4(=O)=O)c(F)c3c2)C1 [Compound 310, 5-{7-[1-(1,3-dimethyl-1H-pyrazole-4-sulfonyl)-2,5-dihydro-1H-pyrrol-3-yl]-1-fluoro-3-hydroxynaphthalen-2-yl}-1λ^6,2,5-thiadiazolidine-1,1,3-trione]",< 1,> 90,< 25,,,,,
"CCS(=O)(=O)NCCOc1ccc2cc(O)c(N3CC(=O)NS3(=O)=O)c(F)c2c1 [Compound 311, N-(2-{[8-fluoro-6-hydroxy-7-(1,1,4-trioxo-1λ^6,2,5-thiadiazolidin-2-yl)naphthalen-2-yl]oxy}ethyl)ethanesulfonamide]",< 1,60 to 90,< 25,,,,,
"CC(C)CCS(=O)(=O)N1CC=C(c2ccc3cc(O)c(N4CC(=O)NS4(=O)=O)c(F)c3c2)C1 [Compound 313, 5-{1-fluoro-3-hydroxy-7-[1-(3-methylbutane-1-sulfonyl)-2,5-dihydro-1H-pyrrol-3-yl]naphthalen-2-yl}-1λ^6,2,5-thiadiazolidine-1,1,3-trione]",< 1,60 to 90,< 25,,,,,
"COc1ccc2cc(O)c(N3CC(=O)NS3(=O)=O)cc2c1 [Compound X, reference compound]",,,,10 to 100,69,< 25,< 25,< 25
